Test results published in PMC12067093, “Discovery and optimisation of a covalent ligand for TRIM25 and its application to targeted protein ubiquitination” (Chemical Science, 2025).

Biological target: T1, TRIM25 (full-length, His10-TRIM25) (Homo sapiens, UniProt Q14258)
T1 construct: Full-length recombinant TRIM25 was pre-treated with either DMSO, 10 or 11; made in house; host or cells: Sf9 insect cells
Test: In vitro TRIM25 auto-ubiquitination time course assay
Format: biochemical
Conditions: TRIM25 4 μM pre-treated with compound 50 μM for 16 h at 4 °C, versus DMSO; assay 60 min at 30 °C
Protocol: 1 Glutathione reactivity assay
2 Glutathione consumption assay was outsourced to Cyprotex, where the experimental
3 procedure was optimised and performed. 10 mM DMSO stocks of fragments 1 and 2,
5 diluted with 5 mM glutathione in PBS. The reaction was shaken before incubation at
6 40 °C. The reaction mixture was analysed via UPLC-UV-MS up to eight times across
7 24 hours, compared to known reference compounds and samples of each compound
8 in distilled water. UPLC conditions: flow rate 800 µL/min on an Acquity UPLC BEH
9 C18 1.7 µm 2.1 x 50 mm column, with column temperature 37°C, monitored at 210 to
10 350 nm. Samples were run using a 2 min gradient elution from 97% mobile phase A
11 to 0% mobile phase A, where mobile phase A was 0.1% formic acid in H2O, and mobile
12 phase B was 0.1% formic acid in 100% MeCN. MS conditions: single quad, ESI+, with
13 scan range of 50 – 1000 Da. […]
15 (k) for each compound was determined from the slope of a linear regression fit for a […]
17 differential for the eight time points. t1/2 values were calculated as follows: t1/2 = 0.693/k. […]
2 indicates the sample taken prior to the addition of ATP. Samples were analysed by […]
16 added directly to the ubiquitination assay reaction mixture. Samples were analysed as […]
18 which was detected by anti-rabbit-HRP secondary antibody (Dako, P0399, 1:2000). […]
21 analysed in ImageLab (Bio-Rad). […]

T1 sequence (Q14258 whole entry): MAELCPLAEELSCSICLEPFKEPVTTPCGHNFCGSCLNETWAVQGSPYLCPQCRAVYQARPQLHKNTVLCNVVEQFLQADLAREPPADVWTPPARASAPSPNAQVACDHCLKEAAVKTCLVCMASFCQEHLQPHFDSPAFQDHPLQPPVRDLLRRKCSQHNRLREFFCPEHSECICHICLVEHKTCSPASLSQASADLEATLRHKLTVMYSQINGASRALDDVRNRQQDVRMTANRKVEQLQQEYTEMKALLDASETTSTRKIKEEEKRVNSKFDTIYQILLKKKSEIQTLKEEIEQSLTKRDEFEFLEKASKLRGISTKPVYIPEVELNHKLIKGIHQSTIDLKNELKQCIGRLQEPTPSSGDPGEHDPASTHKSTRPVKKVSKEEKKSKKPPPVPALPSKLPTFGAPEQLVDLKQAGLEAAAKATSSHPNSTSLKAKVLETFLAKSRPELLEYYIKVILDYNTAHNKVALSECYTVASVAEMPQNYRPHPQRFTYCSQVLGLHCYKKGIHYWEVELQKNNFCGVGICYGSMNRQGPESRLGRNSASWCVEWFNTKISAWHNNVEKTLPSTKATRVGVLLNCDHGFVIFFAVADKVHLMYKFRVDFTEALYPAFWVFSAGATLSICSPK

## Cc1cc(C(=O)N2CCCN(C(=O)CCl)CC2)ccc1-c1ccccc1 [Compound 10]
  rate of TRIM25 auto-ubiquitination: significantly increased

## CC1Cc2ccccc2N1C(=O)C1CCCN(C(=O)CCl)C1 (centres unmarked) [Compound 11]
  rate of TRIM25 auto-ubiquitination: significantly increased
